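The compound was tested at five concentrations on cells cultured in 96-well plates, with a 48-hour exposure period. GI50: concentration for 50% inhibition of growth. At the TGI there is no net growth.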
Experiments:
Assay in all cases: NCI-60 cell line screen, 48 h
KM12 colon = tested on: KM12 colon
SK-MEL-2 melanoma = tested on: SK-MEL-2 melanoma
RPMI-8226 leukemia = tested on: RPMI-8226 leukemia
HOP-62 NSCLC = tested on: HOP-62 NSCLC
CAKI-1 renal = tested on: CAKI-1 renal
NCI/ADR-RES ovarian = tested on: NCI/ADR-RES ovarian
MALME-3M melanoma = tested on: MALME-3M melanoma
HOP-92 NSCLC = tested on: HOP-92 NSCLC
NCI-H522 lung = tested on: NCI-H522 lung
HS 578T breast = tested on: HS 578T breast
UACC-62 melanoma = tested on: UACC-62 melanoma
TK-10 renal = tested on: TK-10 renal
HL-60(TB) leukemia = tested on: HL-60(TB) leukemia
MDA-MB-468 breast = tested on: MDA-MB-468 breast
HCC-2998 colon = tested on: HCC-2998 colon
NCI-H226 lung = tested on: NCI-H226 lung
OVCAR-8 ovarian = tested on: OVCAR-8 ovarian
BT-549 breast = tested on: BT-549 breast
SK-MEL-5 melanoma = tested on: SK-MEL-5 melanoma
HCT-15 colon = tested on: HCT-15 colon
MDA-MB-435 = tested on: MDA-MB-435
LOX IMVI melanoma = tested on: LOX IMVI melanoma
UACC-257 melanoma = tested on: UACC-257 melanoma
SF-268 CNS = tested on: SF-268 CNS
PC-3 prostate = tested on: PC-3 prostate
RXF 393 renal = tested on: RXF 393 renal
SW-620 colon = tested on: SW-620 colon
M14 melanoma = tested on: M14 melanoma
786-0 renal = tested on: 786-0 renal
SNB-19 CNS = tested on: SNB-19 CNS
SF-295 CNS = tested on: SF-295 CNS
K-562 leukemia = tested on: K-562 leukemia
OVCAR-3 ovarian = tested on: OVCAR-3 ovarian
MCF7 breast = tested on: MCF7 breast
UO-31 renal = tested on: UO-31 renal
SK-MEL-28 melanoma = tested on: SK-MEL-28 melanoma
CCRF-CEM leukemia = tested on: CCRF-CEM leukemia
MOLT-4 leukemia = tested on: MOLT-4 leukemia
SK-OV-3 ovarian = tested on: SK-OV-3 ovarian
ACHN renal = tested on: ACHN renal
OVCAR-4 ovarian = tested on: OVCAR-4 ovarian
EKVX NSCLC = tested on: EKVX NSCLC
DU-145 prostate = tested on: DU-145 prostate
SNB-75 CNS = tested on: SNB-75 CNS
A549 NSCLC = tested on: A549 NSCLC
IGROV1 ovarian = tested on: IGROV1 ovarian
HT29 colon = tested on: HT29 colon
A498 renal = tested on: A498 renal
SF-539 CNS = tested on: SF-539 CNS
OVCAR-5 ovarian = tested on: OVCAR-5 ovarian
MDA-MB-231 breast = tested on: MDA-MB-231 breast
T-47D breast = tested on: T-47D breast
NCI-H23 lung = tested on: NCI-H23 lung

## CN1CCCN(Cc2ccc(C(=O)Nc3cccc(Nc4ccc5c(O)cccc5n4)c3)cc2C(F)(F)F)CC1
KM12 colon
  GI50: 1.98 µM
  TGI: 3.99 µM
SK-MEL-2 melanoma
  GI50: 1.81 µM
  TGI: 3.46 µM
RPMI-8226 leukemia
  GI50: 2.89 µM
  TGI: 9.36 µM
HOP-62 NSCLC
  GI50: 2.03 µM
  TGI: 4.58 µM
CAKI-1 renal
  GI50: 1.8 µM
  TGI: 3.94 µM
NCI/ADR-RES ovarian
  GI50: 6.43 µM
  TGI: 68.5 µM
MALME-3M melanoma
  GI50: 1.7 µM
  TGI: 3.14 µM
HOP-92 NSCLC
  GI50: 1.64 µM
  TGI: 4.41 µM
NCI-H522 lung
  GI50: 1.84 µM
  TGI: 3.51 µM
HS 578T breast
  GI50: 1.93 µM
  TGI: 4.85 µM
UACC-62 melanoma
  GI50: 1.69 µM
  TGI: 3.13 µM
TK-10 renal
  GI50: 2.8 µM
  TGI: 8.95 µM
HL-60(TB) leukemia
  GI50: 2.35 µM
  TGI: 5.52 µM
MDA-MB-468 breast
  GI50: 1.66 µM
  TGI: 3.13 µM
HCC-2998 colon
  GI50: 1.8 µM
  TGI: 3.19 µM
NCI-H226 lung
  GI50: 16.7 µM
  TGI: 46.8 µM
OVCAR-8 ovarian
  GI50: 2.51 µM
  TGI: 6.22 µM
BT-549 breast
  GI50: 1.8 µM
  TGI: 3.28 µM
SK-MEL-5 melanoma
  GI50: 1.72 µM
  TGI: 3.09 µM
HCT-15 colon
  GI50: 1.93 µM
  TGI: 4.04 µM
MDA-MB-435
  GI50: 1.78 µM
  TGI: 3.6 µM
LOX IMVI melanoma
  GI50: 1.63 µM
  TGI: 2.99 µM
UACC-257 melanoma
  GI50: 1.6 µM
  TGI: 3.2 µM
SF-268 CNS
  GI50: 2.14 µM
  TGI: 5.24 µM
PC-3 prostate
  GI50: 1.87 µM
  TGI: 5.73 µM
RXF 393 renal
  GI50: 1.85 µM
  TGI: 3.71 µM
SW-620 colon
  GI50: 1.95 µM
  TGI: 3.44 µM
M14 melanoma
  GI50: 1.89 µM
  TGI: 4.49 µM
786-0 renal
  GI50: 2.06 µM
  TGI: 3.8 µM
SNB-19 CNS
  GI50: 2.03 µM
  TGI: 3.91 µM
SF-295 CNS
  GI50: 1.67 µM
  TGI: 3.07 µM
K-562 leukemia
  GI50: 2.18 µM
  TGI: > 100 µM
OVCAR-3 ovarian
  GI50: 1.97 µM
  TGI: 4.41 µM
MCF7 breast
  GI50: 1.68 µM
  TGI: 3.2 µM
UO-31 renal
  GI50: 2.04 µM
  TGI: 4.96 µM
SK-MEL-28 melanoma
  GI50: 1.82 µM
  TGI: 3.27 µM
CCRF-CEM leukemia
  GI50: 2.07 µM
  TGI: > 100 µM
MOLT-4 leukemia
  GI50: 2.11 µM
  TGI: 6.94 µM
SK-OV-3 ovarian
  GI50: 11.1 µM
  TGI: 27.1 µM
ACHN renal
  GI50: 1.92 µM
  TGI: 3.74 µM
OVCAR-4 ovarian
  GI50: 3.83 µM
  TGI: 15.4 µM
EKVX NSCLC
  GI50: 1.82 µM
  TGI: 3.5 µM
DU-145 prostate
  GI50: 3.27 µM
  TGI: 10.1 µM
SNB-75 CNS
  GI50: 1.32 µM
  TGI: 7.46 µM
A549 NSCLC
  GI50: 3.63 µM
  TGI: 15.1 µM
IGROV1 ovarian
  GI50: 2.56 µM
  TGI: 6.88 µM
HT29 colon
  GI50: 1.92 µM
  TGI: 3.76 µM
A498 renal
  GI50: 15.3 µM
  TGI: 29 µM
SF-539 CNS
  GI50: 1.7 µM
  TGI: 3.12 µM
OVCAR-5 ovarian
  GI50: 11.4 µM
  TGI: 23.9 µM
MDA-MB-231 breast
  GI50: 1.65 µM
  TGI: 3.18 µM
T-47D breast
  GI50: 3.46 µM
  TGI: 13.3 µM
NCI-H23 lung
  GI50: 1.78 µM
  TGI: 3.31 µM

Source: PubChem BioAssay (NCI)
